Legend:
[1] = tested on: monocrotaline (MCT)-induced PH rats; assay: Anti-pulmonary hypertension pharmacodynamics; assay type: in vivo, Sprague-Dawley rats
Description: Four-week-old male SPF Sprague-Dawley rats (weighing 220 ± 10 g) were purchased from Sporford Biotechnology Co., Ltd. (Beijing, China). and were randomly divided into cages (four rats per cage) and acclimatized for at least three days with free access to food and water.
Anti-PH pharmacodynamics were carried out using monocrotaline (MCT)-induced PH rats. Thirty rats were randomly divided into five groups: (A) control group; (B) model group; and three treatment groups (C) Wog group; (D) Wog+Alop group; and (E) Wog-Alop group. MCT was administered by a single femoral vein injection to induce PH. All administered groups of drugs were intragastrically administered from days 1 to 21 at a theoretical dose of 5 mg/kg/day for Wog. After three weeks of administration, the rats were weighed and anesthetized with 20% urethane. The electrocardiogram and right ventricular systolic pressure (RVSP) of rats were measured. The rats were perfused, and the heart and lung tissues were completely removed. The right ventricle (RV) and left ventricle plus ventricular septum (LV + S) were accurately separated and weighted, and the right ventricular hypertrophy index (RVHI) = RV/(LV + S) × 100%, RV mass index (RVMI) = RV/body weight × 100% and lung mass index (LMI) = lung weight/body weight × 100% were calculated. […] Heart tissues were taken for H&E and Masson staining, and lung tissues were stained with resorcinol basic fuchsin and proliferating cell nuclear antigen (PCNA) immunofluorescence.

[2] = tested on: PDGF-BB-induced PASMCs; assay: Cell viability (CCK-8) assay, abnormal proliferation; assay type: cell-based, Human; conditions: 3 μM, 40 ng/mL PDGF-BB for 48 h, CCK-8, vs. model group
Description: Human PASMCs ([…], Cat. No.: CYH0707) were purchased from Wuhan Enji Life Technology Co., Ltd. (Wuhan, China) […] were cultured in Dulbecco's Modified Eagle Medium (DMEM) medium with 10% fetal bovine serum (FBS) and 1% penicillin/streptomycin (P/S), and maintained in a humidified 5% CO2 incubator at 37 °C. Prior to drug treatment, […] were subjected to serum starvation by culturing in a maintenance medium containing 0.5% FBS for 24 h to synchronize cell cycle progression. […] After 1 h, cells were stimulated with 40 ng/mL PDGF-BB for 48 h in each group except the control group. Cell viability was assessed using the Cell Counting Kit-8 (CCK-8) assay according to the manufacturer's protocol. Briefly, 10 μL of CCK-8 reagent was added to each well of pretreated PASMCs, followed by incubation at 37 °C under 5% CO2 for 2-h. The absorbance of each sample was quantified at 450 nm using a microplate reader.

[3] = tested on: PDGF-BB-induced PASMCs; assay: ROS detection (DCFH-DA probe); assay type: cell-based, Human; conditions: 3 μM, 40 ng/mL PDGF-BB for 48 h, DCFH-DA fluorescence, vs. model group
Description: Human PASMCs ([…], Cat. No.: CYH0707) were purchased from Wuhan Enji Life Technology Co., Ltd. (Wuhan, China) […] were cultured in Dulbecco's Modified Eagle Medium (DMEM) medium with 10% fetal bovine serum (FBS) and 1% penicillin/streptomycin (P/S), and maintained in a humidified 5% CO2 incubator at 37 °C. Prior to drug treatment, […] were subjected to serum starvation by culturing in a maintenance medium containing 0.5% FBS for 24 h to synchronize cell cycle progression. […] After 1 h, cells were stimulated with 40 ng/mL PDGF-BB for 48 h in each group except the control group. […] After treatment, cells were loaded with 1 μM 2',7'-dichlorodihydrofluorescein diacetate (DCFH-DA) probe for 20 min at 37 °C in the dark. Nuclei were counterstained with Hoechst 33342 Live Cells Staining Solution (1:100 dilution) for 10 min. Fluorescent imaging was performed using a laser scanning confocal microscope (Leica TCS SP8, Wetzlar, Germany) with excitation/emission settings at 488/525 nm for DCFH-DA and 350/461 nm for Hoechst 33342. ROS-associated fluorescence intensity was quantified using ImageJ 4.4 software.

[4] = tested on: PDGF-BB-induced PASMCs; assay: Measurement of oxidative stress markers (MDA, GSH, CAT, GPx kits); assay type: cell-based, Human; conditions: 3 μM, vs. model group
Description: Human PASMCs ([…], Cat. No.: CYH0707) were purchased from Wuhan Enji Life Technology Co., Ltd. (Wuhan, China) […] were cultured in Dulbecco's Modified Eagle Medium (DMEM) medium with 10% fetal bovine serum (FBS) and 1% penicillin/streptomycin (P/S), and maintained in a humidified 5% CO2 incubator at 37 °C. Prior to drug treatment, […] were subjected to serum starvation by culturing in a maintenance medium containing 0.5% FBS for 24 h to synchronize cell cycle progression. […] After 1 h, cells were stimulated with 40 ng/mL PDGF-BB for 48 h in each group except the control group. The levels of MDA and glutathione (GSH), as well as the activities of CAT and glutathione peroxidase (GPx) in cells, were measured using commercial assay kits. The treated PASMCs were collected and lysed with protein lysis buffer following the manufacturer's instructions.

[5] = In vitro dissolution in distilled water (UPLC); assay type: physicochemical; conditions: 37.0 °C, 100 rpm
Description: The wogonin, physical mixture of wogonin and aloperine (Wog+Alop), and Wog-Alop with the theoretical drug content of 6.00 mg were accurately weighed and placed into 200 mL conical flasks containing 90 mL of distilled water at 37.0 °C and 100 rpm. A total of 2 mL of sample solution was withdrawn at predetermined time points (0, 1, 2, 3, 4, 5, 6, 7, 8, 9, 10, 15, 30, 45, and 60 min) and an equal volume of distilled water was immediately supplemented. The sample solutions were filtered through a 0.22 μm microporous membrane and determined by Ultra Performance Liquid Chromatography (UPLC).

[6] = Pharmacokinetic study after intragastric administration; assay type: in vivo; conditions: male, Sprague-Dawley, rat, po, rats, 5 mg/kg as wogonin, plasma
Description: Four-week-old male SPF Sprague-Dawley rats (weighing 220 ± 10 g) were purchased from Sporford Biotechnology Co., Ltd. (Beijing, China). and were randomly divided into cages (four rats per cage) and acclimatized for at least three days with free access to food and water. This study was performed with the approval of the Ethics Review Committee for Laboratory Animals of Beijing University of Chinese Medicine (approval number: BUCM-2023032307-1148) and strictly adhered to the relevant guidelines. Laboratory animal license No.: SCXK (Jing) 2019-0010; Laboratory unit use license No.: SYXK (Jing) 2020-0033.
Twenty-four SD rats were randomly divided into three groups of eight rats each. After 3 days of adaptive feeding, they were fasted (free access to water) for 12 h. On the morning of the fourth day, wogonin, Wog+Alop, and Wog-Alop were intragastrically administered at a theoretical dose of 5 mg/kg for wogonin. Plasma samples were collected into heparinized tubes from the oculi choroideae vein at 0, 5, 10, 15, 30, 45, and 60 min and 2, 4, 6, 8, 12, 24, 32, and 48 h after administration. Plasma samples were separated by centrifugation and stored at −80 °C until determination. Ultra-Performance Liquid Chromatography-Tandem Triple Quadrupole Mass Spectrometry (UPLC-QQQ-MS) multi-response monitoring (MRM) mode was used to determine plasma samples, and Masslynx 4.1 was used to calculate plasma drug concentrations at each collection time point. The plasma concentration versus time plots were drawn, and the pharmacokinetic parameters were calculated by DAS 2.1 software. The relative oral bioavailability (RB) was calculated using the following formula: […]

[7] = intragastric 5 mg/kg/day as Wog, days 1 to 21, vs. model group

SMILES | P-wave duration [1, 7] | RVHI (right ventricular hypertrophy index) [1, 7] | RVMI (RV mass index) [1, 7] | inhibition of abnormal proliferation of PDGF-BB-induced PASMC [2] | ROS levels [3] | increase in MDA levels [4] | reduction in CAT activity [4] | reduction in GPx activity [4] | reduction in GSH levels [4] | percentage of dissolution [5] [%] | AUC(0-inf) ([6]; n = 8) [ng·h/mL] | AUC(0-t) ([6]; n = 8) [ng·h/mL] | Cmax ([6]; n = 8) [ng/mL] | Tmax ([6]; n = 8) [h] | MRT last ([6]; n = 8, read-out: MRT(0–t)) [h] | MRT inf ([6]; n = 8, read-out: MRT(0–∞)) [h] | half-life ([6]; n = 8, read-out: t1/2z (converted)) [h] | thickening of the medial wall of small pulmonary artery vessels ([1]; 5 mg/kg/day as Wog, 21 days, resorcinol basic fuchsin staining, vs. model group) | RVSP (right ventricular systolic pressure) [1, 7]
C1=C2CCCN[C@H]2[C@@H]2C[C@H]1[C@H]1CCCCN1C2 [Alop, aloperine] | significantly reduce | not statistically significant | not statistically significant | almost no inhibitory effects | Neither Wog nor Alop alone showed notable inhibitory effects | significantly inhibited | significantly inhibited | significantly inhibited | significantly inhibited |  |  |  |  |  |  |  |  |  | 
COc1c(O)cc(O)c2c(=O)cc(-c3ccccc3)oc12 [Wogonin] | significantly reduce | not statistically significant | not statistically significant | almost no inhibitory effects | Neither Wog nor Alop alone showed notable inhibitory effects | significantly inhibited | significantly inhibited | significantly inhibited | significantly inhibited | 2.17 | 77 ± 80.6 | 49.1 ± 42.1 | 14.8 ± 12.2 | 1.93 ± 3.41 | 5.97 ± 4.79 | 12.5 ± 17.5 | 7.21 ± 9.97 | inhibit the thickening | reduced RVSP, although without statistical significance
